Data published in patent publication US20240140953A1, “INHIBITORS OF MENIN-MLL INTERACTION” (BIOMEA FUSION, INC., priority 2018, published 2024).
Read-outs that look alike come from different tables or passages of the source.

Columns and labels:
MV4-11 (MLL-AF4) = experiment: Proliferation study, CellTiterGlo, 4 days (Example 102), MV4-11; type: cell-based, human; conditions: MV4-11, 4 days treatment; for IC50: CellTiterGlo; for MV4-11 (MLL-AF4) % max: maximal inhibition
Description: The objective of the study was to evaluate the ability of representative compounds of the present invention, inhibitors of Menin/MLL interaction to inhibit cell proliferation. The proliferation inhibitory effect was investigated in two human MLL-leukemia cells selected on the bases of MLL fusion protein and listed in Table 102. HL-60 cell line was used as negative control.
ATP is present in all metabolically active cells and is considered as a marker for cell viability and proliferation. The metabolic cell activity was determined using the CellTiter-Glo kit from Promega, an ATP monitoring system based on the production of luminescence by the reaction of ATP with added UltraGlo® recombinant luciferase (Kawano et al., 2016), according to the supplier's experimental recommendations.
The described assay evaluates the ability of 4 representative compounds to inhibit the cell proliferation in the human MLL-leukemia cells plus a negative control cell line.
The assay provides potency values (IC50) for each test compound at a single time point Day 4 (T4).
Seven concentrations of the compounds (2.00E-05-6.67E-06-2.22E-06-7.41E-07-2.47E-07-8.23E-08-2.74E-08M), were assessed in duplicate in an individual test occasion in all the cell lines. MI-503 (Borkin et al., 2015) was used as reference compound and was tested at the same concentrations as the NCEs. 100% of proliferation is represented by the untreated cells (0.2% DMSO). The cell growth was monitored up to 4 days in culture.
MV4-11, MOLM-13 and HL-60 cells (see Table 2) were maintained in RPMI-1640 medium (Invitrogen, Cat. n. 618700, Batch n. 1965930) supplemented with 10% of Heat Inactivated FBS (Invitrogen, Cat n. 10500, Batch n. 08Q8078K) and 1% Pen-Strep (Invitrogen, Cat. N. 15140, Batch n. 1910859) and cultured at 37° C. in a humidified incubator with 5% CO2. All the cell lines grow in suspension and the cell density was maintained in a range of 2×10^5-1×10^6 viable cells/ml. Cells were pelleted at 130 g×5 min and conditioned medium was used to dilute the cell suspension.
Test items were dissolved in glass vials at 10 mM in DMSO with purity ≥99.9% (Sigma, D8418, batch n. SHBH4245V) and stored at −20° C. in 1.5 mL Eppendorf tubes.
Serial dilutions 1 to 3 in DMSO 100% were prepared starting from a 10 mM stock solutions to generate 7 points concentration response curve (CRC).
For each plate to test, one 0.4 μL copy plate and four 0.3 μL copy plates were then stamped into 96-well plates not treated for cell adhesion (Sarstedt—cat.no. 82.1581.001) by acoustic liquid Handling, Echo, at a concentration which was 500 fold the final assay concentration. Stamped plates were stored at −20° C. The final concentrations for the reference compound, MI-503, and the test items were: 2.00E-05, 6.67E-06, 2.22E-06, 7.41E-07, 2.47E-07, 8.23E-08 and 2.74E-08 M.
Cells were plated in 96-well flat bottom microtiter plates at cell density of 15,000 cells/ml for HL-60, 1000 cells/ml for MOLM-13 and 10,000 cell/ml for MV4-11. Cells were treated with 0.2% DMSO (Sigma, D8418, batch n. SHBH4245V) or serial dilutions of compounds (0.027 μM-20 μM) in DMSO (0.2% final concentration). Cells were incubated in a 5% CO2 incubator at 37° C. for 4 days. A CellTiterGlo viability assay (Promega) was employed. Luminescence was read by using VictorV (Perkin Elmer) multilabel plate reader using the standard protocol for luminescence in 96 well plate. The experiment was performed in duplicate.
(§1) Data were expressed as % of inhibition compared to the 0.2% DMSO negative control, and was calculated as follows: […]
CRCs were analysed by GraphPad and IC50 values were calculated by non-linear regression using 4 parameter-logistic equation. IC50 (μM) values were reported in the final data table. The curve fittings were performed leaving free all the parameters. Any constrain were reported in the results table.

HL-60 = experiment: LTP assay, CellTiterGlo, T4-T14 (Example 103), HL-60; type: cell-based; conditions: for inhibition of cell viability (in words): HL-60, LTP assay
Experimental: (§2) The day of the experiment (T0) all the cell line suspensions were counted by Cell Viability Analyser, Vi-CELL and properly diluted with fresh medium to obtain the cell density reported in the Test System paragraph.
(§3) Cells were tested after 4 passages after thawing.
(§4) 200 μL/well and 150 μL/well of cell suspension were added into the 0.4 μL/well and 0.3 μL/well compound plates, respectively. • Cell plate containing 200 μL/well suspension was incubated at 37° C. in a humidified incubator with 5% CO2. • From each well of the 150 μL/well cell assay plate, 100 μL were harvested and transferred into a 96-well Optiplate (Perkin Elmer, Cat. n. 6005290) and cell viability was measured as described in 4.3 paragraphs (T0).
(§5) After four days in culture (T4) 150 μL/well of fresh medium were added into a new 0.3 μL/well copy compound plate. • From each well of the 200 μL/well cell assay plate: • 100 μL were sampled for the cell viability measurement as described in 4.3 paragraphs (T4). • 50 μL were harvested and added to the 150 μL/well compound plate prepared as described in the first point to dilute 1:4 the cell suspension. • The cell assay plate diluted and containing 200 μL/well suspension were incubated at 37° C. in a humidified incubator with 5% Co2.
(§6) At T7-T11-T14 it was proceeded as described in T4, with the exception that no further cell dilution was carried out at T14.
(§7) Plates containing the samples to be tested were equilibrated at room temperature for approximately 30 min and then 30 μL/well of the Promega CellTiterGlo® reagent were added.
(§8) Contents will be mixed for 5 min on an orbital shaker to induce cell lysis and then incubated at room temperature for an additional 10 min to stabilize the luminescent signal.
(§9) Luminescence was read by using VictorV (Perkin Elmer) multilabel plate reader using the standard protocol for luminescence in 96 well plate.
as §1
(§10) CRCs were analysed by GraphPad and IC50 values were calculated by non-linear regression using 4 parameter-logistic equation. IC50 (μM) values were reported in the final data table.
(§11) The curve fittings were performed leaving free all the parameters. Any constrain were reported in the results table.

MOLM-13 (MLL-AF9) = experiment: LTP assay, CellTiterGlo, T4-T14 (Example 103), MOLM-13; type: cell-based, human; conditions: for inhibition of cell viability (in words): MOLM-13, LTP assay
Experimental: as §2, §3, §4, §5, §6, §7, §8, §9, §1, §10, §11

[1] = Homo sapiens, MV4-11, 96 h, read-out: MV4-11 (MLL-AF4) IC50
[2] = Homo sapiens, MV4-11, 96 h, read-out: MV4-11 (MLL-AF4) pIC50 (converted)
[3] = HL-60, T4 (Day 4), read-out: IC50 T4 (Day 4)
[4] = Homo sapiens, HL-60, 96 h, HL-60, T4 (Day 4), read-out: IC50 T4 (Day 4)
[5] = Homo sapiens, HL-60, HL-60, T7, read-out: IC50 T7
[6] = Homo sapiens, HL-60, HL-60, T11, read-out: IC50 T11
[7] = Homo sapiens, HL-60, HL-60, T14, read-out: IC50 T14
[8] = Homo sapiens, MOLM-13, 96 h, MOLM-13 (MLL-AF9), T4 (Day 4), read-out: IC50 T4 (Day 4)
[9] = Homo sapiens, MOLM-13, MOLM-13 (MLL-AF9), T7, read-out: IC50 T7
[10] = Homo sapiens, MOLM-13, MOLM-13 (MLL-AF9), T11, read-out: IC50 T11
[11] = Homo sapiens, MOLM-13, MOLM-13 (MLL-AF9), T14, read-out: IC50 T14
[12] = MOLM-13 (MLL-AF9), T4 (Day 4), read-out: IC50 T4 (Day 4)

Row | IC50 (MV4-11 (MLL-AF4); [1]) | IC50 (MV4-11 (MLL-AF4); [2]) | IC50 (MV4-11 (MLL-AF4); read-out: MV4-11 (MLL-AF4) IC50) | IC50 (HL-60; [3]) | IC50 (HL-60; HL-60, T7, read-out: IC50 T7) | IC50 (HL-60; [4]) | IC50 (HL-60; [5]) | IC50 (HL-60; [6]) | IC50 (HL-60; [7]) | IC50 (MOLM-13 (MLL-AF9); [8]) | IC50 (MOLM-13 (MLL-AF9); [9]) | IC50 (MOLM-13 (MLL-AF9); [10]) | IC50 (MOLM-13 (MLL-AF9); [11]) | IC50 (MOLM-13 (MLL-AF9); [12]) | SMILES | MV4-11 (MLL-AF4) % max (MV4-11 (MLL-AF4)) | inhibition of cell viability (in words) (HL-60) | inhibition of cell viability (in words) (MOLM-13 (MLL-AF9)) | inhibition of cell viability (in words) (MV4-11 (MLL-AF4); up to 20 μM)
1 | 0.49 µM | 0.49 µM |  |  |  |  |  |  |  |  |  |  |  |  | O=C(Nc1ccc(-c2cc3c(N4CCOCC4)ncnc3[nH]2)cc1)Nc1cc(-c2cccnc2)n[nH]1 [Compound 9, 1-{4-[4-(morpholin-4-yl)-7H-pyrrolo[2,3-d]pyrimidin-6-yl]phenyl}-3-[3-(pyridin-3-yl)-1H-pyrazol-5-yl]urea] | 102% |  |  | 
2 | 0.2 µM | 0.282 µM | 0.28 µM | 0.692 µM | 0.389 µM | 0.69 µM | 0.39 µM | 0.48 µM | 0.47 µM | 0.66 µM | 0.513 µM | 0.32 µM | 0.42 µM | 0.661 µM | Cn1nc(-c2cccnc2)cc1CC(=O)Nc1ccc(-c2cc3c(N4CCOCC4)ncnc3[nH]2)cc1 [Compound 11, 2-[1-methyl-3-(pyridin-3-yl)-1H-pyrazol-5-yl]-N-{4-[4-(morpholin-4-yl)-7H-pyrrolo[2,3-d]pyrimidin-6-yl]phenyl}acetamide] | 100% | fully inhibited cell viability | fully inhibited cell viability | 
3 | 0.43 µM | 0.427 µM |  | > 10 µM | > 10 µM | > 5 µM | > 5 µM | > 5 µM | > 5 µM | > 5 µM | 5.75 µM | 0.562 µM | > 5 µM | > 10 µM | O=C(Cc1cc(-c2cccnc2)n[nH]1)Nc1ccc(-c2nc3c(N4CCOCC4)ncnc3[nH]2)cc1 [Compound 12, N-{4-[6-(morpholin-4-yl)-9H-purin-8-yl]phenyl}-2-[3-(pyridin-3-yl)-1H-pyrazol-5-yl]acetamide] | 89% | No activity | partial effect | fully inhibited
